35 compounds from patent US10781185B2, “Heterocyclic compounds for the inhibition of PASK” (BioEnergenix LLC, priority 2009, dated 2020) can be followed below.

The assay deals with PASK (Homo sapiens (Human), UniProt Q96RG2). The assay is described as follows: PAS Kinase FRET Assay. The following applies: TR-FRET, Ulight-peptide substrate; read-out: IC50 Kinase Domain. It is filed as biochemical. An excerpt: PAS Kinase FRET Assay The aim of the FRET assay is to determine the inhibition potential of test compounds on targeted kinase. This assay platform provides a homogenous screening method for measuring kinase activity by quantitating the amount of phospho-substrate in solution following a kinase reaction. In the presence of kinase and ATP, the Ulight-peptide is phosphorylated and captured by an anti-phospho-substrate antibody, which brings the Eu chelate donor and Ulight acceptor dyes into close proximity. […] The contents of the plate were and incubated at RT for 1 h. The reaction was stopped by adding 5 μl of stop solution to each test well followed by mixing and incubation at RT for 10 minutes. 5 μl of detection mix (detection antibody diluted in detection buffer) was added; the contents of the plate were mixed and then incubated in the dark for 1 hour at RT. […] The results were graphed to calculate the EC50. Titration of ATP at the EC50 concentration of kinase to determine ATP Km,app. was performed using the following method. […] The contents of the plate were and incubated at RT for 1 h. The reaction was stopped by adding 5 μl of stop solution to each test well followed by mixing and incubation at RT for 10 minutes. 5 μl of detection mix (detection antibody diluted in detection buffer) was added; the contents of the plate were mixed and then incubated in the dark for 1 hour at RT. […] The results were graphed to calculate the EC50 as the ATP Km,app. […] If compound is not soluble under this condition, it was diluted to 3 mM. Kinase reaction buffer was prepared containing 10 mM MgCl2, 50 mM HEPES, 1 mM EGTA, 0.01% TWEEN-20, 2 mM DTT. […] As a positive control, 2.5 μl of positive compound was added to assay wells, and 2.5 μl of DMSO to assay wells as vehicle control. Kinase solution was prepared in reaction buffer at 2× final assay concentration. Kinase solution (5 μl) was added to each well of the assay plate. The substrate and ATP solution was prepared in kinase reaction buffer at 4× final assay concentration. The kinase reaction was started by adding 2.5 μl of substrate+ATP mix solution to each well of the assay plate. The plate is mixed on a plate shaker; then covered and allowed to react for 2 hours in the dark at 25° C. without shaking. The reaction was stopped by adding 5 μl of stop solution to each test well followed by mixing and incubation at RT for 10 minutes in the dark. 5 μl of detection mix (detection antibody diluted in detection buffer) was added; the contents of the plate were mixed and then incubated in the dark for 1 hour at RT.

Where only a bound is given, the exact number is not on record here.

PASK, sequence (Q96RG2 999-1251): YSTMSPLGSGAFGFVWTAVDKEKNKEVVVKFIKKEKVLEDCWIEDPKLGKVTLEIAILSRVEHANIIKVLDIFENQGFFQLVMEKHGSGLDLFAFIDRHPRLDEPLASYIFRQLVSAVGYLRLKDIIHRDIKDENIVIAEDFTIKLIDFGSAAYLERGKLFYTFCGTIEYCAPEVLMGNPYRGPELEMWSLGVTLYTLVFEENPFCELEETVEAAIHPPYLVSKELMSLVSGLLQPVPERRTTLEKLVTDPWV

For `CS(=O)(=O)N1CCN(c2nc3cc(C(=O)O)ccc3nc2-c2ccccc2)CC1` [Example 33, 3-(4-(Methylsulfonyl)piperazin-1-yl)-2-phenylquinoxaline-6-carboxylic acid], the IC50 (commonly the point on the concentration scale where inhibition reaches its midpoint) is not above 10 µM.
On to `CC(=O)N(C)C1CCN(c2nc3cc(C(=O)O)ccc3nc2-c2ccccc2)CC1` [Example 34, 3-(4-(N-Methylacetamido)piperidin-1-yl)-2-phenylquinoxaline-6-carboxylic acid], for which the IC50 was not above 10 µM.
`CN(c1ccccc1)C1CCN(c2nc3cc(C(=O)O)ccc3nc2-c2ccccc2)CC1` [Example 35, 3-(4-(Methyl(phenyl)amino)piperidin-1-yl)-2-phenylquinoxaline-6-carboxylic acid]: the half-inhibitory concentration (IC50) is not above 10 µM.
Next, `CCN(CC)c1nc2cc(C(=O)O)ccc2nc1-c1ccccc1` [Example 36, 3-(Diethylamino)-2-phenylquinoxaline-6-carboxylic acid]: not above 10 µM.
Next, `CC(=O)NC1CCN(c2nc3cc(C(=O)O)ccc3nc2-c2ccccc2)CC1` [Example 37, 3-(4-Acetamidopiperidin-1-yl)-2-phenylquinoxaline-6-carboxylic acid]: not above 10 µM; `O=C(O)c1ccc2nc(-c3ccccc3)c(N3CCc4ccccc4C3)nc2c1` [Example 39, 3-(3,4-Dihydroisoquinolin-2(1H)-yl)-2-phenylquinoxaline-6-carboxylic acid]: not above 10 µM; `O=C(O)c1ccc2nc(-c3ccccc3)c(NCCc3ccccc3)nc2c1` [Example 41, 3-(Phenethylamino)-2-phenylquinoxaline-6-carboxylic acid]: not above 10 µM.
Next, `CN(CCc1ccccc1)c1nc2cc(C(=O)O)ccc2nc1-c1ccccc1` [Example 42, 3-(Methyl(phenethyl)amino)-2-phenylquinoxaline-6-carboxylic acid]: not above 10 µM; `O=C(O)c1ccc2nc(-c3ccccc3)c(NC3CCCCC3)nc2c1` [Example 44, 3-(Cyclohexylamino)-2-phenylquinoxaline-6-carboxylic acid]: not above 10 µM.
Regarding `CCC(C)N(C)c1nc2cc(C(=O)O)ccc2nc1-c1ccccc1` (centres unmarked) [Example 48, 3-(sec-Butyl(methyl)amino)-2-phenylquinoxaline-6-carboxylic acid], the 50% inhibitory concentration (IC50) was not above 10 µM.
Next, `O=C(O)c1ccc2nc(-c3ccccc3)c(N3CC[C@@H](O)C3)nc2c1` [Example 49, (R)-3-(3-Hydroxypyrrolidin-1-yl)-2-phenylquinoxaline-6-carboxylic acid]: not above 10 µM; `O=C(O)c1ccc2nc(-c3ccccc3)c(N3CC[C@H](O)C3)nc2c1` [Example 50, (S)-3-(3-Hydroxypyrrolidin-1-yl)-2-phenylquinoxaline-6-carboxylic acid]: not above 10 µM.
Next, `O=C(O)c1ccc2nc(-c3ccccc3)c(N3CCC[C@H]3CO)nc2c1` [Example 53, (S)-3-(2-(Hydroxymethyl)pyrrolidin-1-yl)-2-phenylquinoxaline-6-carboxylic acid]: not above 10 µM; `C[C@H](c1ccccc1)N(C)c1nc2cc(C(=O)O)ccc2nc1-c1ccccc1` [Example 59, (R)-3-(Methyl(1-phenylethyl)amino)-2-phenylquinoxaline-6-carboxylic acid]: not above 10 µM; `C[C@@H](c1ccccc1)N(C)c1nc2cc(C(=O)O)ccc2nc1-c1ccccc1` [Example 60, (S)-3-(Methyl(1-phenylethyl)amino)-2-phenylquinoxaline-6-carboxylic acid]: not above 10 µM.
Then `CC[C@@H](C)N(C)c1nc2cc(C(=O)O)ccc2nc1-c1ccccc1` [Example 61, (R)-3-(sec-Butyl(methyl)amino)-2-phenylquinoxaline-6-carboxylic acid], with not above 10 µM; and `O=C(O)c1ccc2nc(-c3ccccc3)c(-n3ccc4ccccc43)nc2c1` [Example 62, 3-(1H-Indol-1-yl)-2-phenylquinoxaline-6-carboxylic acid], with not above 10 µM; and `O=C(O)c1ccc2nc(-c3ccccc3)c(N3CCc4ccccc43)nc2c1` [Example 67, 3-(Indolin-1-yl)-2-phenylquinoxaline-6-carboxylic acid], with not above 10 µM.
Regarding `O=C(O)c1ccc2nc(-c3ccccc3)c(N3CCOc4ccccc43)nc2c1` [Example 68, 3-(2,3-Dihydrobenzo[b][1,4]oxazin-4-yl)-2-phenylquinoxaline-6-carboxylic acid], the 50% inhibitory concentration (IC50) is not above 10 µM.
Next, `COc1cccc(-c2nc3ccc(C(=O)O)cc3nc2N(C)C(C)C)c1` [Example 69, 3-(Isopropyl(methyl)amino)-2-(3-methoxyphenyl)quinoxaline-6-carboxylic acid]: not above 10 µM; `CC(C)N(C)c1nc2cc(C(=O)O)ccc2nc1-c1cccc(F)c1` [Example 70, 2-(3-Fluorophenyl)-3-(isopropyl(methyl)amino)quinoxaline-6-carboxylic acid]: not above 10 µM.
Next, `CC(C)N(C)c1nc2cc(C(=O)O)ccc2nc1-c1ccccc1F` [Example 71, 2-(2-Fluorophenyl)-3-(isopropyl(methyl)amino)quinoxaline-6-carboxylic acid]: not above 10 µM.
Then `CC(C)N(C)c1nc2cc(C(=O)O)ccc2nc1-c1ccc(S(C)(=O)=O)cc1` [Example 82, 3-(Isopropyl(methyl)amino)-2-(4-(methylsulfonyl)phenyl)quinoxaline-6-carboxylic acid], with not below 10 µM.
Turning to `CC(C)N(C)c1nc2cc(C(=O)O)ccc2nc1-c1ccc(OC(F)(F)F)cc1` [Example 85, 3-(Isopropyl(methyl)amino)-2-(4-(trifluoromethoxy)phenyl)quinoxaline-6-carboxylic acid], the half-inhibitory concentration (IC50) was not above 10 µM.
With `CC(C)N(C)c1nc2cc(C(=O)O)ccc2nc1-c1ccc(C#N)cc1` [Example 86, 2-(4-Cyanophenyl)-3-(isopropyl(methyl)amino)quinoxaline-6-carboxylic acid], the IC50 was not above 10 µM.
As to `C[C@H]1CN(c2ccccn2)CCN1c1nc2cc(C(=O)O)ccc2nc1-c1ccc(F)cc1` [Example 90, (S)-2-(4-Fluorophenyl)-3-(2-methyl-4-(pyridin-2-yl)piperazin-1-yl)quinoxaline-6-carboxylic acid], the half-inhibitory concentration (IC50) is not above 10 µM.
In the case of `C[C@H]1CCCCN1c1nc2cc(C(=O)O)ccc2nc1-c1ccc(F)cc1` [Example 91, (S)-2-(4-Fluorophenyl)-3-(2-methylpiperidin-1-yl)quinoxaline-6-carboxylic acid], the concentration for half-maximal inhibition (IC50) was not above 10 µM.
Then `CN(c1nc2cc(C(=O)O)ccc2nc1-c1ccc(F)cc1)C1CC1` [Example 92, 3-(Cyclopropyl(methyl)amino)-2-(4-fluorophenyl)quinoxaline-6-carboxylic acid], with not above 10 µM; and `COC[C@H]1CCCN1c1nc2cc(C(=O)O)ccc2nc1-c1ccc(F)cc1` [Example 93, (R)-2-(4-Fluorophenyl)-3-(2-(methoxymethyl)pyrrolidin-1-yl)quinoxaline-6-carboxylic acid], with not above 10 µM.
Regarding `C[C@H]1CN(c2ccccn2)CCN1c1nc2cc(C(=O)O)ccc2nc1-c1ccccc1` [Example 94, (S)-3-(2-Methyl-4-(pyridin-2-yl)piperazin-1-yl)-2-phenylquinoxaline-6-carboxylic acid], the IC50 was not above 10 µM.
Next, `O=C(O)c1ccc2nc(-c3ccccc3)c(N3CCCC4CCCCC43)nc2c1` (centres unmarked) [Example 96, 3-(Octahydroquinolin-1(2H)-yl)-2-phenylquinoxaline-6-carboxylic acid]: not above 10 µM.
Then `CC(C)N(C)c1nc2cc(C(=O)O)ccc2nc1-c1cccnc1` [Example 97, 3-(Isopropyl(methyl)amino)-2-(pyridin-3-yl)quinoxaline-6-carboxylic acid], with not above 10 µM.
Then `CC(C)N(C)c1nc2cc(C(=O)O)ccc2nc1-c1ccco1` [Example 98, 2-(Furan-2-yl)-3-(isopropyl(methyl)amino)quinoxaline-6-carboxylic acid], with not above 10 µM; and `CC(C)N(C)c1nc2cc(C(=O)O)ccc2nc1-c1cnc2ccccc2c1` [Example 99, 3-(Isopropyl(methyl)amino)-2-(quinolin-3-yl)quinoxaline-6-carboxylic acid], with not above 10 µM; and `CC(C)N(C)c1nc2cc(C(=O)O)ccc2nc1-c1ccc(N2CCOCC2)cc1` [Example 100, 3-(Isopropyl(methyl)amino)-2-(4-morpholinophenyl)quinoxaline-6-carboxylic acid], with not above 10 µM.
